Measurements reported in ChEMBL document CHEMBL5338805, “Discovery of the First Subnanomolar PPARα/δ Dual Agonist for the Treatment of Cholestatic Liver Diseases” (J Med Chem, 2023).
Active and inactive are the calls of the source.

Columns and labels:
[1] = Clearance in fasted Sprague-Dawley rat at 2 mg/kg, IV measured at 0.083 to 24 hrs by LC-MS/MS analysis; assay type: ADME, organism-based; conditions: in vivo, time 0.083-24 hrs
[2] = target: Nuclear receptor ROR-alpha (Homo sapiens) (UniProt P35398); assay: Agonist activity at RORalpha (unknown origin) transfected in african green monkey COS7 cells assessed transactivation incubated at 1 uM for 16 hrs by luciferase assay; assay type: cell-based
[3] = Anti-cholestatic activity in ANIT-induced C57BL/6Nifdc mouse model assessed as decrease in total p65 level at 0.03 to 0.1 mg/kg, po upto 42 hrs measured after 48 hrs by Western blot analysis; assay type: ADME, organism-based; conditions: in vivo, 90 h, dose 0.03-0.1 mg/kg
[4] = Anti-cholestatic activity in ANIT-induced C57BL/6Nifdc mouse model assessed as decrease in liver TUDCA at 0.03 to 0.1 mg/kg, po upto 42 hrs measured after 48 hrs; assay type: ADME, organism-based; conditions: in vivo, 90 h, dose 0.03-0.1 mg/kg
[5] = Anti-cholestatic activity in ANIT-induced C57BL/6Nifdc mouse model assessed as decrease in liver HCA at 0.03 to 0.1 mg/kg, po upto 42 hrs measured after 48 hrs; assay type: ADME, organism-based; conditions: in vivo, 90 h, dose 0.03-0.1 mg/kg
[6] = Acute toxicity in mouse assessed as mortality administered orally for 14 days; conditions: in vivo, po, 336 h, time 14 day
[7] = Down-streaming of Oatp1 gene expression in C57BL/6JNifdc mouse liver assessed as hepatic resorption of bile acid administered at 0.03 to 0.1 mg/kg, po for 3 days measured after 6 hrs of last administration by real-time PCR analysis; assay type: ADME, organism-based; conditions: in vivo, 78 h, dose 0.03-0.1 mg/kg, time 3.25 day
[8] = Stability in human liver microsome assessed as intrinsic clearance at 1 uM for 0 to 45 mins by LC/MS-8050 analysis; assay type: ADME; conditions: liver microsomes, time 0-45 min, read-out: CLH
[9] = Anti-cholestatic activity in ANIT-induced C57BL/6Nifdc mouse model assessed as decrease in serum TBA at 0.03 to 0.1 mg/kg, po upto 42 hrs measured after 48 hrs; assay type: ADME, organism-based; conditions: in vivo, 90 h, dose 0.03-0.1 mg/kg
[10] = target: Voltage-gated inwardly rectifying potassium channel KCNH2 (Homo sapiens, UniProt Q12809); assay: Inhibition of human ERG by whole cell patch clamp method; assay type: toxicity
[11] = Down-streaming of NTCP gene expression in C57BL/6JNifdc mouse liver assessed as hepatic resorption of bile acid administered at 0.03 mg/kg, po for 3 days measured after 6 hrs of last administration by real-time PCR analysis; assay type: ADME, organism-based; conditions: in vivo, 78 h
[12] = Down-streaming of NTCP gene expression in C57BL/6JNifdc mouse liver assessed as hepatic resorption of bile acid administered at 0.03 to 0.1 mg/kg, po for 3 days measured after 6 hrs of last administration by real-time PCR analysis; assay type: ADME, organism-based; conditions: in vivo, 78 h, dose 0.03-0.1 mg/kg, time 3.25 day
[13] = target: Oxysterols receptor LXR-beta (Homo sapiens) (UniProt P55055); assay: Agonist activity at LXRbeta (unknown origin) transfected in african green monkey COS7 cells assessed transactivation incubated at 1 uM for 16 hrs by luciferase assay; assay type: cell-based
[14] = Down-streaming of Cyp27a1 gene expression in C57BL/6JNifdc mouse liver assessed as hepatic resorption of bile acid administered at 0.03 mg/kg, po for 3 days measured after 6 hrs of last administration by real-time PCR analysis; assay type: ADME, organism-based; conditions: in vivo, 78 h
[15] = target: Retinoic acid receptor RXR-alpha (Homo sapiens) (UniProt P19793); assay: Agonist activity at RXRalpha (unknown origin) transfected in african green monkey COS7 cells assessed transactivation incubated at 1 uM for 16 hrs by luciferase assay; assay type: cell-based
[16] = target: Vitamin D3 receptor (Homo sapiens) (UniProt P11473); assay: Agonist activity at VDR (unknown origin) transfected in african green monkey COS7 cells assessed transactivation incubated at 1 uM for 16 hrs by luciferase assay; assay type: cell-based
[17] = Anti-fibrosis activity in Ccl4-induced C57BL/6Nifdc mouse model assessed as decrease in inflammatory cells administered orally for 3 weeks; assay type: ADME, cell-based; conditions: in vivo, po, 504 h, dose 0.03-0.1 mg/kg
[18] = target: Peroxisome proliferator-activated receptor alpha (Homo sapiens) (UniProt Q07869); assay: Binding affinity to PPARalpha LBD (unknown origin) assessed as thermal stability by measuring change in melting temperature by thermal shift assay; conditions: filed as agonist, dose 0.625-10 µM
[19] = target: Retinoic acid receptor alpha (Homo sapiens) (UniProt P10276); assay: Agonist activity at RARalpha (unknown origin) transfected in african green monkey COS7 cells assessed transactivation incubated at 1 uM for 16 hrs by luciferase assay; assay type: cell-based
[20] = In vivo upregulation of PPAR alpha in C57BL/6JNifdc mouse liver administered orally for 3 days measured after 6 hrs of last administration by real-time PCR analysis; assay type: ADME, organism-based; conditions: po, 78 h, dose 0.03-0.1 mg/kg, time 3.25 day
[21] = Down-streaming of Cyp7a1 gene expression in C57BL/6JNifdc mouse liver assessed as hepatic resorption of bile acid administered at 0.03 mg/kg, po for 3 days measured after 6 hrs of last administration by real-time PCR analysis; assay type: ADME, organism-based; conditions: in vivo, 78 h
[22] = Anti-cholestatic activity in ANIT-induced C57BL/6Nifdc mouse model assessed as decrease in liver TBA at 0.03 to 0.1 mg/kg, po upto 42 hrs measured after 48 hrs; assay type: ADME, organism-based; conditions: in vivo, 90 h, dose 0.03-0.1 mg/kg
[23] = In vivo upregulation of PPAR delta in C57BL/6JNifdc mouse liver administered at 0.03 mg/kg, po for 3 days measured after 6 hrs of last administration by real-time PCR analysis; assay type: ADME, organism-based; conditions: 78 h
[24] = Anti-cholestatic activity in ANIT-induced C57BL/6Nifdc mouse model assessed as decrease in liver GCA at 0.03 to 0.1 mg/kg, po upto 42 hrs measured after 48 hrs; assay type: ADME, organism-based; conditions: in vivo, 90 h, dose 0.03-0.1 mg/kg
[25] = Mutagenicity in Salmonella typhimurium TA100 measured at 0.21 to 16.67 mg/ml for 72 hrs by mini-Ames test; assay type: toxicity; conditions: salmonella enterica subsp. enterica serovar typhimurium, dose 0.21-16.67 mg/ml
[26] = Anti-cholestatic activity in ANIT-induced C57BL/6Nifdc mouse model assessed as decrease in liver GHCA at 0.03 to 0.1 mg/kg, po upto 42 hrs measured after 48 hrs; assay type: ADME, organism-based; conditions: in vivo, 90 h, dose 0.03-0.1 mg/kg
[27] = Anti-fibrosis activity in Ccl4-induced C57BL/6Nifdc mouse model assessed as reversal of increased Col1a1 administered orally for 3 weeks by Western blot analysis; assay type: ADME; conditions: in vivo, po, 504 h, dose 0.03-0.1 mg/kg
[28] = Anti-cholestatic activity in ANIT-induced C57BL/6Nifdc mouse model assessed as decrease in liver T-MCA at 0.03 to 0.1 mg/kg, po upto 42 hrs measured after 48 hrs; assay type: ADME, organism-based; conditions: in vivo, 90 h, dose 0.03-0.1 mg/kg
[29] = Anti-cholestatic activity in ANIT-induced C57BL/6Nifdc mouse model assessed as decrease in liver 3-H-7, 12-Dkca at 0.03 to 0.1 mg/kg, po upto 42 hrs measured after 48 hrs; assay type: ADME, organism-based; conditions: in vivo, 90 h, dose 0.03-0.1 mg/kg
[30] = Anti-cholestatic activity in ANIT-induced C57BL/6Nifdc mouse model assessed as decrease in serum aspartate aminotransferase at 0.03 to 0.1 mg/kg, po upto 42 hrs measured after 48 hrs; assay type: ADME, organism-based; conditions: in vivo, 90 h, dose 0.03-0.1 mg/kg
[31] = Anti-cholestatic activity in ANIT-induced C57BL/6Nifdc mouse model assessed as decrease in liver UCA at 0.03 to 0.1 mg/kg, po upto 42 hrs measured after 48 hrs; assay type: ADME, organism-based; conditions: in vivo, 90 h, dose 0.03-0.1 mg/kg

Chain of Oxysterols receptor LXR-beta (Homo sapiens) (P55055 whole entry): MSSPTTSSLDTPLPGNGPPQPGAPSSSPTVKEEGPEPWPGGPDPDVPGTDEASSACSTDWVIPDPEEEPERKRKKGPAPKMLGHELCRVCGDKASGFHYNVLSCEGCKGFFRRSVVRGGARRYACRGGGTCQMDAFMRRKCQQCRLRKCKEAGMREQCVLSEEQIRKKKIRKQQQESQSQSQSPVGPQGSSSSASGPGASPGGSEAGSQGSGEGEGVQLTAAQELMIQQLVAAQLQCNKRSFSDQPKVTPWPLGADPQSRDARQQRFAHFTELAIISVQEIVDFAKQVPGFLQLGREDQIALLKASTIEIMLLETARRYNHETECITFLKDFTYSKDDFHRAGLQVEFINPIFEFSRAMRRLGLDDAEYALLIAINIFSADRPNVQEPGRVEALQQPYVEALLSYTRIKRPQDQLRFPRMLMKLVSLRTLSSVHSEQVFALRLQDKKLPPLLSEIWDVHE
Chain of Voltage-gated inwardly rectifying potassium channel KCNH2 (Q12809 whole entry): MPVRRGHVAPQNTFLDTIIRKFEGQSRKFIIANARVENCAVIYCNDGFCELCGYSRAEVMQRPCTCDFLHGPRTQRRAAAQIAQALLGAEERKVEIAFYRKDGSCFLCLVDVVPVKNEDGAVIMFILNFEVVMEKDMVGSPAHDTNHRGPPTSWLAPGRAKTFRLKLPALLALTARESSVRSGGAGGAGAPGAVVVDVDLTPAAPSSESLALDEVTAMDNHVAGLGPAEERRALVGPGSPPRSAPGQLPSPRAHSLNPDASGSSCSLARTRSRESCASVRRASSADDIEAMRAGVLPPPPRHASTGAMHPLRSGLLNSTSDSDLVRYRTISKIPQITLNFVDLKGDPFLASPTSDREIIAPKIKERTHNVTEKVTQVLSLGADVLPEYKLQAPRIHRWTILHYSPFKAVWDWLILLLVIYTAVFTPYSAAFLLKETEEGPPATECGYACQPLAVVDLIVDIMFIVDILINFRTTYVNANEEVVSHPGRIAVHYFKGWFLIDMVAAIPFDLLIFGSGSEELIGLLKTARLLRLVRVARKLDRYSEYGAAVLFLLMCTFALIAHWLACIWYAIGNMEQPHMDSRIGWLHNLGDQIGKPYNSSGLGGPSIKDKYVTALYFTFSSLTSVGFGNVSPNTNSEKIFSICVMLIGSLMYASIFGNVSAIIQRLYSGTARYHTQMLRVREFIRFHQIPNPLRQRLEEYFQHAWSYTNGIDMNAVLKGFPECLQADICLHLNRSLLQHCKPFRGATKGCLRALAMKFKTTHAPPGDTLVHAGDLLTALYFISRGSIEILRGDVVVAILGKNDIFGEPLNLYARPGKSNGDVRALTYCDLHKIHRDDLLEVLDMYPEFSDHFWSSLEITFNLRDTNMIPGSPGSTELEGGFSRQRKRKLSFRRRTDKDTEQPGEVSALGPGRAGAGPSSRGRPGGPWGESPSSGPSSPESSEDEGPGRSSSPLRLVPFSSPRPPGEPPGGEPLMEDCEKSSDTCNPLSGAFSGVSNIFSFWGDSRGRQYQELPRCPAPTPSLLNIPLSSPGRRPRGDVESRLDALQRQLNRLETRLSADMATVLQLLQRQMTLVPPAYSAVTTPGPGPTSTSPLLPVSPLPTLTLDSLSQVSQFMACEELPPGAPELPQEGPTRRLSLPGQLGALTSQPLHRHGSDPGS
Chain of Vitamin D3 receptor (Homo sapiens) (P11473 whole entry): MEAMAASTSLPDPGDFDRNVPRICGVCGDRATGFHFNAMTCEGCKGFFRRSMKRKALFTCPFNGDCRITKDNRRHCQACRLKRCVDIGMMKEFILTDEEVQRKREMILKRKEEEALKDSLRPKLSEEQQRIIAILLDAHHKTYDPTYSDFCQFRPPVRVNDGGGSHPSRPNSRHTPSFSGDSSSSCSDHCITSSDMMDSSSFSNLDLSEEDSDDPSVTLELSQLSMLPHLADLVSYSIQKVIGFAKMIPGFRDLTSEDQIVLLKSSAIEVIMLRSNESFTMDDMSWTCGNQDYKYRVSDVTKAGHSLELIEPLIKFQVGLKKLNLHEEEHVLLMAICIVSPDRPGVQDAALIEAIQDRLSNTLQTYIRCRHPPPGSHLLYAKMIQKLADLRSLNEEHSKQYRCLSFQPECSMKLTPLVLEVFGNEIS
Chain of Retinoic acid receptor alpha (Homo sapiens) (P10276 whole entry): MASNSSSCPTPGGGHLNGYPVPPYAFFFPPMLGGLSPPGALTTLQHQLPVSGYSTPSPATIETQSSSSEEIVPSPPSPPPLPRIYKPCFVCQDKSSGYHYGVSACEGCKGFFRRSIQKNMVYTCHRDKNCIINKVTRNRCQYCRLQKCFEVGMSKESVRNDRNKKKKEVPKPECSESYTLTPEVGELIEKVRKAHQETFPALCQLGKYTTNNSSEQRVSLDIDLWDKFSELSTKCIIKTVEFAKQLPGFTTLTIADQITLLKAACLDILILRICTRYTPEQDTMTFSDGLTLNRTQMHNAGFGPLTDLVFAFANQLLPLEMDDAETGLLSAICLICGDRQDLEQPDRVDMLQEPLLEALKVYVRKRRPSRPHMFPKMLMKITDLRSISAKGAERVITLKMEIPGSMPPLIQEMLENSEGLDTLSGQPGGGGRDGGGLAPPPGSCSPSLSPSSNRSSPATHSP
Chain of Peroxisome proliferator-activated receptor alpha (Homo sapiens) (Q07869 whole entry, the tested form may be a part): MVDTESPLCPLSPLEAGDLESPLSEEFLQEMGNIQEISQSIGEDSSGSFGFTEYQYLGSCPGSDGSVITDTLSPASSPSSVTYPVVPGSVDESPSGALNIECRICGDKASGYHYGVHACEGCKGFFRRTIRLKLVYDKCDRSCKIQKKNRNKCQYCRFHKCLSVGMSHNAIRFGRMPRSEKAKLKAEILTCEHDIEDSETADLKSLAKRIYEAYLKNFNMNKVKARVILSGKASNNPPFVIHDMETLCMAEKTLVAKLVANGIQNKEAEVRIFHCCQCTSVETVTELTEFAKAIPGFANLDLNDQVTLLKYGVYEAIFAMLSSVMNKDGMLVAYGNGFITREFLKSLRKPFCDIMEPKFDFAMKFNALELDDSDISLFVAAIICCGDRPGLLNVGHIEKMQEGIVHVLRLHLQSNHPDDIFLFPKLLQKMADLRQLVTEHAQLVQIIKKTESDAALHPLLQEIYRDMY
Chain of Retinoic acid receptor RXR-alpha (Homo sapiens) (P19793 whole entry): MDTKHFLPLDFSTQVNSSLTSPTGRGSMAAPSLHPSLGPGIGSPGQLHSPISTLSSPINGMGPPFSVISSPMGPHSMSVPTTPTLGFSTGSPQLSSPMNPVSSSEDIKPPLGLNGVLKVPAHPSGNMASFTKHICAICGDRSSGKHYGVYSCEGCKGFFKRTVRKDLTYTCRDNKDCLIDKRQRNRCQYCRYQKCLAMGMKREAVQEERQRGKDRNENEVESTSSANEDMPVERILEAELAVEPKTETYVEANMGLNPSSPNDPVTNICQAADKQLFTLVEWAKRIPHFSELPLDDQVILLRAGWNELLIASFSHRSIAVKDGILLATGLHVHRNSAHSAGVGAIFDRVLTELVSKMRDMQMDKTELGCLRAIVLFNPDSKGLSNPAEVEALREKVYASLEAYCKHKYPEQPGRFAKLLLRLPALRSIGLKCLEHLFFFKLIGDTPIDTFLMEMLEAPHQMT
Chain of Nuclear receptor ROR-alpha (Homo sapiens) (P35398 whole entry): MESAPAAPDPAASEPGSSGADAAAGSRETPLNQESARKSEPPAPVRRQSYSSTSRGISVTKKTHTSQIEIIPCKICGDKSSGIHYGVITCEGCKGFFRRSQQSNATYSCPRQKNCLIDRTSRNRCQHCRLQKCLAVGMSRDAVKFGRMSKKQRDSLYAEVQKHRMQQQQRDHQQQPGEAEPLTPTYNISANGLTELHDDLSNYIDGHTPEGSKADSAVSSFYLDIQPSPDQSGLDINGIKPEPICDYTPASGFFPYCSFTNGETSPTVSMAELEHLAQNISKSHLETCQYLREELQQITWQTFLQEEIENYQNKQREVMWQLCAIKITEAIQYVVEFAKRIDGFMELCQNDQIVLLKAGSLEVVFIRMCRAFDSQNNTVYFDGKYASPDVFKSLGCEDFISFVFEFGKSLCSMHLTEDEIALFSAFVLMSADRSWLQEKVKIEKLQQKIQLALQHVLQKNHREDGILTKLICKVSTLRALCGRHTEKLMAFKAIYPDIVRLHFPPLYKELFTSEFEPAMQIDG

Cc1cc(CN2C(=O)CN(c3ccc(C(F)(F)F)cc3)C2=O)cc(C)c1OC(C)(C)C(=O)O
Active: Activity [3] | Activity [4] | Activity [5] | Activity [7] | Activity [9] | Activity [11] | Activity [12] | Activity [14] | Activity [21] | Activity [22] | Activity [23] | Activity [24] | Activity [26] | Activity [28] | Activity [29] | Activity [30] | Activity [31]
active: deltaTm [18] Dose-Dependent Effect
6.24 mL/min/kg: CLint scaled at 1 µM [8]
Dose-Dependent Effect: Activity [17] | Activity [20] | Activity [27]
Non-Toxic: Activity [6] | Activity [25]
> 30 µM: IC50 [10]
8.4 mL/min/kg: CL [1]
inactive: Activity [2] | Activity [13] | Activity [15] | Activity [16] | Activity [19]
